This is an account of results in US11214803B2, “Modulators of YAP1 expression” (Ionis Pharmaceuticals, Inc., priority 2019, dated 2022).

The IC50 is the concentration that gives 50% inhibition. A lower IC50 goes with greater potency.

For series [1], the system named is Yap1 mRNA. Briefly: Dose-dependent inhibition of human Yap1 in A-431 cells (Example 6, 5,000 cells per well, RTS4814). The series is classed as cell-based. Conditions: Table 53, A-431 cells. The procedure, abridged:
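A-431 cells (5,000/well) took up oligonucleotides by free uptake at various doses for about 48 h. Yap1 mRNA was measured by RT-PCR (RTS4814), normalised to RIBOGREEN total RNA and expressed as % untreated control; IC50 by linear regression on a log/linear plot.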

Series [2] in a line: Tolerability in Balb/c mice, body and organ weights (Example 11). The series is classed as in vivo. The following applies: 50 mg/kg subcutaneously twice a week for four weeks, end of study. The procedure, abridged:
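Male Balb/c mice, 4-6 weeks old, dosed subcutaneously with 50 mg/kg modified oligonucleotide twice weekly for four weeks (8 doses), PBS group as control. Euthanized day 26, 24 hours after the last dose; body and organ weights recorded at study end.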

Series [3] is described as follows: Tolerability in CD-1 mice, plasma chemistry markers (Example 15). The series is classed as in vivo. Conditions: male CD-1 mice, 50 mg/kg s.c. twice a week for four weeks (8 treatments), day 26. The protocol:
CD-1 mice were treated with modified oligonucleotides selected from studies described above and evaluated for changes in the levels of various plasma chemistry markers.
Groups of four male CD-1 mice at 4-5 weeks of age (obtained from Charles River) were injected subcutaneously twice a week for four weeks (for a total of 8 treatments) with 50 mg/kg of modified oligonucleotides. One group of male CD-1 mice was injected with PBS. Mice were euthanized on day 26 post start of treatment (24 hrs following the final administration).

The subject of series [4] is Yap1 mRNA. Put plainly: Antisense inhibition of human Yap1 in A-431 cells by cEt gapmers, single dose (Example 2, RTS4814). The series is classed as cell-based. Summed up: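 A-431 cells (5,000/well) received 2,000 nM oligonucleotide by free uptake for about 48 h. Yap1 mRNA was then quantified by RT-qPCR with primer probe set RTS4814, normalized to RIBOGREEN total RNA, and reported as % of untreated control; asterisked values mark oligos inside the amplicon.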

Series [5] concerns Yap1 mRNA. Briefly: Antisense inhibition of human Yap1 in SNU-449 cells by modified oligonucleotides, single dose (Example 5, RTS36584). The series is classed as cell-based. The procedure, abridged:
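SNU-449 cells (10,000/well) took up 2,000 nM oligonucleotide by free uptake for about 48 h. Yap1 mRNA was measured by qRT-PCR with primer probe set RTS36584 and normalised to RIBOGREEN total RNA. Values are % of untreated control; asterisked oligos target the amplicon region.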

Where “and” joins values, the source holds several entries; their conditions need not be identical. Equal values may be shown once. Strand notation (5' to 3'): a small letter for the sugar, then the base; units joined by * are phosphorothioate-linked, units joined directly phosphodiester-linked; [ ] holds rarer units or linkages, { } end groups; capitals alone tell only the bases. k = constrained ethyl (cEt); [5mC] = 5-methylcytosine; d = 2'-deoxy (DNA)

“715487 (kA*kT*kT*dA*d[5mC]*dT*dT*d[5mC]*dA*dT*dA*dG*d[5mC]*kT*kT*kA) [compound 715487]” showed an IC50 in the series on Yap1 mRNA [1] (Yap1 mRNA, linear regression on a log/linear plot) of 1000 nM. Also, the “% UTC 148 nM” value in the series with Yap1 mRNA [1] (free uptake, 148 nM, approximately 48 hours, RTS4814) is reported as 87 % UTC. The “% UTC 444 nM” value in the series with Yap1 mRNA [1] (free uptake, 444 nM, approximately 48 hours, RTS4814) is listed as 56 % UTC. The “% UTC 1333 nM” value in the series on Yap1 mRNA [1] (free uptake, 1333 nM, approximately 48 hours, RTS4814) is 48 % UTC. Besides, the “% UTC 4000 nM” value in the series on Yap1 mRNA [1] (free uptake, 4000 nM, approximately 48 hours, RTS4814) is reported as 29 % UTC. In series [2], this substance came in with a Kidney weight of 0.42 g, a Liver weight of 1.46 g, a Spleen weight of 0.15 g and a body weight of 27 g. In series [3], this substance gave an ALB of 1.9 g/dL, an ALT of 66 U/L and an AST of 113 U/L.

Consider “958499 (ATTAGAGTATGTGGCA; 3-10-3 cEt gapmer, further chemistry not given here) [compound 958499]”, for which the “YAP1 (% UTC)” value was 2 % UTC in the series on Yap1 mRNA [4] (Table 32, Yap1 mRNA, percent of untreated control, 3-10-3 cEt gapmers targeting SEQ ID NO.: 1, and 2); 4 % UTC in the series on Yap1 mRNA [4] (Table 33, Yap1 mRNA, percent of untreated control, 3-10-3 cEt gapmers targeting SEQ ID NO.: 1, and 2); 1 % UTC with Yap1 mRNA [4] (Yap1 mRNA as percent of untreated control, A-431 cells, 3-10-3 cEt gapmers targeting SEQ ID NO.: 1, and 2, Table 30); 1 % UTC with Yap1 mRNA [4] (Yap1 mRNA as percent of untreated control, A-431 cells, 3-10-3 cEt gapmers targeting SEQ ID NO.: 1, and 2, Table 31).

“958499 (kA*kT*kT*dA*dG*dA*dG*dT*dA*dT*dG*dT*dG*kG*k[5mC]*kA) [Compound 958499]”: the “YAP1 (% UTC)” value in the series with Yap1 mRNA [4] (Table 18, A-431 cells, 5,000 cells per well, free uptake, 2,000 nM modified oligonucleotide, approx. 48 hours, RTS4814, normalized to RIBOGREEN, Yap1 mRNA as percent of untreated control) amounted to 1 % UTC; with Yap1 mRNA [4] (Table 19, A-431 cells, 5,000 cells per well, free uptake, 2,000 nM modified oligonucleotide, approx. 48 hours, RTS4814, normalized to RIBOGREEN, Yap1 mRNA as percent of untreated control), 2 % UTC; with Yap1 mRNA [4] (Table 20, Yap1 mRNA, percent of untreated control, 3-10-3 cEt gapmers targeting SEQ ID NO.: 1 and 2), 1 % UTC; in the series on Yap1 mRNA [4] (Table 21, Yap1 mRNA, percent of untreated control, 3-10-3 cEt gapmers targeting SEQ ID NO.: 1 and 2), 1 % UTC; with Yap1 mRNA [4] (Table 22, Yap1 mRNA as percent of untreated control, 3-10-3 cEt gapmers, single dose), 1 % UTC; in the series on Yap1 mRNA [4] (Table 23, Yap1 mRNA as percent of untreated control, 3-10-3 cEt gapmers, single dose), 2 % UTC. The “YAP1 (% UTC)” value with Yap1 mRNA [4] (Table 24, Yap1 mRNA as percent of untreated control, 3-10-3 cEt gapmers targeting SEQ ID NO.: 1, and 2) was 2 % UTC; with Yap1 mRNA [4] (Table 25, Yap1 mRNA as percent of untreated control, 3-10-3 cEt gapmers targeting SEQ ID NO.: 1, and 2), 1 % UTC; in the series on Yap1 mRNA [5] (Table 39, SNU-449 cells, 10,000 cells per well, free uptake, 2,000 nM oligonucleotide, approx. 48 hours, RTS36584, normalized to RIBOGREEN, Yap1 mRNA relative to untreated control), 8 % UTC; with Yap1 mRNA [5] (Table 40 (separate experiment), SNU-449 cells, 10,000 cells per well, free uptake, 2,000 nM oligonucleotide, approx. 48 hours, RTS36584, normalized to RIBOGREEN, Yap1 mRNA relative to untreated control), 15 % UTC; with Yap1 mRNA [5] (Table 41, SNU-449 cells, 10,000 cells per well, free uptake, 2,000 nM modified oligonucleotide, approximately 48 hours, RTS36584, normalized to RIBOGREEN, Yap1 mRNA relative to untreated control cells), 14 % UTC; with Yap1 mRNA [5] (Table 42 (separate experiment), SNU-449 cells, 10,000 cells per well, free uptake, 2,000 nM modified oligonucleotide, approximately 48 hours, RTS36584, normalized to RIBOGREEN, Yap1 mRNA relative to untreated control cells), 15 % UTC. Also, the “YAP1 (% UTC)” value with Yap1 mRNA [5] (Table 43 experiment, SNU-449 cells, 10,000 cells per well, free uptake, 2,000 nM, approximately 48 hours, RTS36584, Yap1 mRNA normalized to RIBOGREEN, relative to untreated control cells) is recorded as 14 % UTC; in the series with Yap1 mRNA [5] (Table 44 experiment, SNU-449 cells, 10,000 cells per well, free uptake, 2,000 nM, approximately 48 hours, RTS36584, Yap1 mRNA normalized to RIBOGREEN, relative to untreated control cells), 9 % UTC; in the series with Yap1 mRNA [5] (Table 45, Yap1 mRNA as percent of untreated control, SNU-449 cells, single dose) it was 15 % UTC. The “YAP1 (% UT)” value with Yap1 mRNA [5] (Table 46, Yap1 mRNA as percent of untreated control, SNU-449 cells, single dose) is listed as 16 % UT; in the series on Yap1 mRNA [5] (Table 48, Yap1 mRNA level relative to untreated control, modified oligonucleotides targeting SEQ ID NO.: 1 and 2) it was 15 % UT; in the series on Yap1 mRNA [5] (Table 49, Yap1 mRNA level relative to untreated control, modified oligonucleotides targeting SEQ ID NO.: 1 and 2), 13 % UT; in the series with Yap1 mRNA [5] (Table 50, Yap1 mRNA remaining as percent of untreated control (UT), SNU-449 cells, single dose), 12 % UT; in the series on Yap1 mRNA [5] (Table 51, Yap1 mRNA remaining as percent of untreated control (UT), SNU-449 cells, single dose) it was 9 % UT; in the series with Yap1 mRNA [5] (Table 52, Yap1 mRNA, modified oligonucleotides targeting SEQ ID NO: 1 and 2), 14 % UT. Further, in the series with Yap1 mRNA [5] (Yap1 mRNA, percent of untreated control, modified oligonucleotides targeting SEQ ID NO: 1 and 2, Table 47), the “YAP1 (% UT)” value was 17 % UT and 10 % UT.
